# Laboratory results: article PMC6255974 (Frontiers in Pharmacology, 2018)
# Where a name gives a salt, the structure may show the parent alone.
# Key:
# [1] = biological target: T1, human adult muscle nicotinic acetylcholine receptor αβεδ (Homo sapiens, UniProt P02708+P11230+Q04844+Q07001); assay: ACh-evoked currents at adult muscle nAChR in Xenopus oocytes, two-electrode voltage clamp; assay type: cell-based; settings: read-out: IC50 of block of ACh-evoked currents
# T1 construct: expressed in transfected cells; host or cells: Xenopus laevis oocytes injected with cRNA (cDNAs in pRBG4, gifts of A. G. Engel and F. Grassi)
# Source text: The deviations are represented by the standard error of the mean (SEM).
# [2] = parameters: method as in Dieterich et al., 1984; settings: humans; oral 2 × 260 mg quinine sulfate; ref Dieterich et al., 1984; cited from earlier work
# human GABA(A)-receptors = biological target: human GABA(A)-receptors; parameters: method as in Thompson and Lummis, 2008; settings: ref Thompson and Lummis, 2008; cited from earlier work
# [3] = test system: neuronal rat α9α10 nAChRs; parameters: method as in Ballestero et al., 2005; settings: ref Ballestero et al., 2005; cited from earlier work
# [4] = biological target: human heteromeric 5HT3AB-receptors; parameters: method as in Thompson and Lummis, 2008; settings: ref Thompson and Lummis, 2008; cited from earlier work
# [5] = biological target: human homomeric 5HT3A-receptors; parameters: method as in Thompson and Lummis, 2008; settings: ref Thompson and Lummis, 2008; cited from earlier work
# [6] = test system: recombinant muscle receptor expressed in HEK293 cells; settings: concentrations up to 30 μM; ref Sieb et al., 1996; cited from earlier work
# T1 sequence (P02708 21-457): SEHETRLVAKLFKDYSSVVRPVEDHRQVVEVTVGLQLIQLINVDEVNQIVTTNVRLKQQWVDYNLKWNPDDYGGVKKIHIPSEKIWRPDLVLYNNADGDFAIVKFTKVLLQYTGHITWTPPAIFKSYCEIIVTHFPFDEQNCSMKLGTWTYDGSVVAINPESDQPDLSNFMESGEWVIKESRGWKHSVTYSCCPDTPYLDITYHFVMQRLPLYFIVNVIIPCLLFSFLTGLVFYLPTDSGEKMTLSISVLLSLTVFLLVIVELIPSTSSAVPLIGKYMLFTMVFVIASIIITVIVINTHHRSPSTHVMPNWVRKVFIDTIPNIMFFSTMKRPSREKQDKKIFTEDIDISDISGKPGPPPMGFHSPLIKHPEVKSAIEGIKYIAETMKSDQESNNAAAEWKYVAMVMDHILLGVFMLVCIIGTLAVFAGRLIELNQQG
# T1 sequence (P11230 24-501): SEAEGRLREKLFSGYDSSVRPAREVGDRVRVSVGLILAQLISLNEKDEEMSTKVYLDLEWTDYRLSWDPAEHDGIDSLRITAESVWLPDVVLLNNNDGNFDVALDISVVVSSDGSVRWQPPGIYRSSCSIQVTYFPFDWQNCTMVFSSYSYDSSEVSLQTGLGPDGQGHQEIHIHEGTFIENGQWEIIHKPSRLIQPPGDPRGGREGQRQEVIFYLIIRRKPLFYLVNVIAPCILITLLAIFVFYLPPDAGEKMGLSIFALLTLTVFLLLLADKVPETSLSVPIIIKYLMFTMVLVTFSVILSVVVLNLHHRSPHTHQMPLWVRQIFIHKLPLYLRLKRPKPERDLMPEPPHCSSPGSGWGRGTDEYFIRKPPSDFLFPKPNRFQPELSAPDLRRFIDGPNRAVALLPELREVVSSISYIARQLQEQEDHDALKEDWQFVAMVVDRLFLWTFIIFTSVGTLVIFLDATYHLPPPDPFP
# T1 sequence (Q07001 22-517): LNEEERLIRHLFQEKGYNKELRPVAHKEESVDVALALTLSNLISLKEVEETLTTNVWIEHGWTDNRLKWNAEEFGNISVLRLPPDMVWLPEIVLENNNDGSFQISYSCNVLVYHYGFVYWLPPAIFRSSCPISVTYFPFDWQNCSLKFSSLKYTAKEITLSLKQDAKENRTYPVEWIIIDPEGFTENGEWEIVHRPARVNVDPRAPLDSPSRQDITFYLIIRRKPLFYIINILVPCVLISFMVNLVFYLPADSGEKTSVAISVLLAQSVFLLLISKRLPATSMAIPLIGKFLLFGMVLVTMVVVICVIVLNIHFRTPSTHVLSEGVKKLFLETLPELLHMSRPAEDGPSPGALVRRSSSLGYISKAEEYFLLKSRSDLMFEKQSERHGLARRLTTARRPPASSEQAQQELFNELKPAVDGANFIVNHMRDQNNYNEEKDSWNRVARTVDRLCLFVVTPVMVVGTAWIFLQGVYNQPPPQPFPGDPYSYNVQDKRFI
# T1 sequence (Q04844 21-493): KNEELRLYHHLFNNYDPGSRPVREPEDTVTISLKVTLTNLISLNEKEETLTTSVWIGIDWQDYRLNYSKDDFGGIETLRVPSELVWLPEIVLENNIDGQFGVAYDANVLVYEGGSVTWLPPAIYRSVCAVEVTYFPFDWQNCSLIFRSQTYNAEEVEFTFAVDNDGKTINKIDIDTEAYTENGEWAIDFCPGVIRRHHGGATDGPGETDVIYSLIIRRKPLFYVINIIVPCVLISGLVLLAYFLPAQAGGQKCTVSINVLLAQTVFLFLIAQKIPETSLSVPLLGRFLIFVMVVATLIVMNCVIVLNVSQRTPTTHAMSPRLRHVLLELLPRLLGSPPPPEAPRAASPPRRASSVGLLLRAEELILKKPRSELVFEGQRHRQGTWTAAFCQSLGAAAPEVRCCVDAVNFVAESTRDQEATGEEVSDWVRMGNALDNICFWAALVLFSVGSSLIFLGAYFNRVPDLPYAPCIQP
smiles,measurement,setting,value
CCN(CC)CCCC(C)Nc1ccnc2cc(Cl)ccc12 (stereo not shown) [chloroquine],IC50,[1],2.22 µM
C=C[C@H]1C[N@@]2CC[C@H]1C[C@H]2[C@H](O)c1ccnc2ccc(OC)cc12 [quinine sulfate],Time of peak plasma concentration after intake,[2],about 2 h
C=C[C@H]1C[N@@]2CC[C@H]1C[C@H]2[C@H](O)c1ccnc2ccc(OC)cc12 [quinine],IC50,human GABA(A)-receptors,~1600 µM
same,IC50,[3],~1 µM
same,IC50,[4],~16 µM
same,IC50,[5],~1 µM
same,Inhibition of the binding of α-bungarotoxin,[6],could not inhibit
